Laboratory results as given in patent US6403591B1, “1-azatricyclic-4-benzylpiperazines” (Neurogen Corporation, priority 1999, dated 2002).

Legend:
human α1 receptor = test: α1 receptor binding, 3H-prazosine, CHO cell membranes; conditions: recombinant human α1 in CHO cells
Procedure: (§1) Pellets of Chinese hamster ovary (CHO) cells containing recombinantly produced primate D2, human D4 and human α1 receptors are used for the assays. The sample is homogenized in 100 volumes (w/vol) of 0.05 M Tris HCl buffer containing 120 mM NaCl, 5 mM MgCl2 and 1 mM EDTA at 4° C. and pH 7.4. The sample is then centrifuged at 30,000×g, resuspended and rehomogenized. The sample is then recentrifuged at 30,000×g, the supernatant is removed and the final tissue sample is frozen until it is needed. The tissue is resuspended 1:20 (wt/vol) in 0.05 M Tris HCl buffer containing 120 mM NaCl.
Norepinephrine al binding is carried out using ^3H-prazosine as the ligand. Nonspecific binding is determined in the presence of 1 μM prazosine. Preferably, dopamine antagonists should not interact with the α1 adrenergic receptor, as interactions with this G-coupled protein receptor give rise to types of hypotension.

human D4 receptor = molecular target: T1, human D4 receptor (Homo sapiens, UniProt P21917); test: D4 receptor binding, 3H-YM 09151-2, CHO cell membranes; conditions: recombinant human D4 in CHO cells, 0.1 nM 3H-YM 09151-2, 25° C.
T1 sequence (P21917 1-419): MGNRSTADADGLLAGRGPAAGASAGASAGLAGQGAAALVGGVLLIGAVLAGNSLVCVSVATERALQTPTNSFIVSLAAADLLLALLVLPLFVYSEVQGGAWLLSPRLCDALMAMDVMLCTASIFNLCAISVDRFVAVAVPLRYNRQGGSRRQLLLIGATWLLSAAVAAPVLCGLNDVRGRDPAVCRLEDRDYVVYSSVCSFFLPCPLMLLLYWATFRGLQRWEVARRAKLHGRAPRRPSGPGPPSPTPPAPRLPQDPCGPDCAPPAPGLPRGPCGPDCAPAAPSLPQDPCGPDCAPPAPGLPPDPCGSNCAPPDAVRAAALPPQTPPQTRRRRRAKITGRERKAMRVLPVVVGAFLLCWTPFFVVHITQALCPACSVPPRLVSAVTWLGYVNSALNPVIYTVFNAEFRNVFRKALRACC
Procedure: (§2) The following assay is a standard assay for determining the binding affinity of compounds to dopamine D4 and D2 receptors.
as §1
(§3) Incubations for dopaminergic binding are carried out at 25° C. and contain 0.4 ml of tissue sample, 0.1 nM ^3H-YM 09151-2 (Nemonapride, cis-5-Chloro-2-methoxy-4-(methylamino)-N-(2-methyl-2-(phenylmethyl)-3-pyrrolidinyl)benzamide) and the compound of interest in a total incubation of 1.0 ml. Nonspecific binding is defined as that binding found in the presence of 1 μM spiperone; without further additions, nonspecific binding is less than 20% of total binding.

primate D2 receptor = primate D2 receptor (UniProt P52702); test: D2 receptor binding, 3H-YM 09151-2, CHO cell membranes; conditions: recombinant primate D2 in CHO cells, 0.1 nM 3H-YM 09151-2, 25° C.
Procedure: as §2, §1, §3

Chain of primate D2 receptor (P52702 whole entry): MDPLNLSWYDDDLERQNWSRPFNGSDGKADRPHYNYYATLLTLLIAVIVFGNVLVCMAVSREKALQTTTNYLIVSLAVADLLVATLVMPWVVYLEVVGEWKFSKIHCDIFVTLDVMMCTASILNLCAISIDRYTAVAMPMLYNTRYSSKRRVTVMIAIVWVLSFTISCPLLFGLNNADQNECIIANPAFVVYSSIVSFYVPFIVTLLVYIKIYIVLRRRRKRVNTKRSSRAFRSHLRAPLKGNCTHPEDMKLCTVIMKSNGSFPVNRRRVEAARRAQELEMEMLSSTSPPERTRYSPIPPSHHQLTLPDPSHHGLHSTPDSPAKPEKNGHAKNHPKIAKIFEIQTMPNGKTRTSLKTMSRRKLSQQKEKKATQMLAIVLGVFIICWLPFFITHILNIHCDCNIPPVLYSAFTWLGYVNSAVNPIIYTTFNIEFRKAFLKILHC

Ki (human D4 receptor) [nM]	Compound	Ki (human α1 receptor) [nM]	Ki (primate D2 receptor) [nM]
4	Cc1ccc(CN2CCN(C3CCc4cccc5c4N(CC5)C3=O)CC2)cc1 (centres unmarked) [Compound 1, 5-[(4-methylbenzyl)piperazin-1-yl]-1,2,4,5,6,7-hexahydro-4-oxo-pyrrolo-[3,2,1-jk][1]benzazepine]	–	–
19	CC1(C)Cc2cccc3c2N1C(=O)C(N1CCN(Cc2ccc(Cl)cc2)CC1)CC3 (centres unmarked) [Compound 2, 5-[(4-chlorobenzyl)piperazin-1-yl]-2,2-dimethyl-1,2,4,5,6,7-hexahydro-4-oxo-pyrrolo-[3,2,1-jk][1]benzazepine]	–	–

Compound	Ki (human D4 receptor) [nM]	Ki (human α1 receptor) [nM]	Ki (primate D2 receptor) [nM]
CC1Cc2cccc3c2N1C(=O)C(N1CCN(Cc2ccc(Cl)cc2)CC1)CC3 (mixture of isomers) [Compound 4]	9	> 1000	50
